Test results from the NIST ThermoML archive (doi:10.1016/j.fluid.2010.10.028).
Numbers after ± are expanded uncertainties.

Assay: xn = mol fraction of the nth substance listed
Settings: Liquid, Vibrating tube method

CC(C)=O [acetone] + CCCCCCC
Settings	mass density [kg/m3]
347.63 K, 54850 kPa, x1 = 0.492	716.07 ± 1.4
347.63 K, 59840 kPa, x1 = 0.801	752.99 ± 1.4
347.63 K, 59850 kPa, x1 = 0.492	719.82 ± 1.4
347.63 K, 64820 kPa, x1 = 0.801	756.73 ± 1.4
347.63 K, 64830 kPa, x1 = 0.492	723.43 ± 1.4
347.63 K, 64920 kPa, x1 = 0.611	733.74 ± 1.4
347.63 K, 69910 kPa, x1 = 0.801	760.44 ± 1.4
347.63 K, 69920 kPa, x1 = 0.611	737.26 ± 1.4
347.63 K, 69930 kPa, x1 = 0.492	726.98 ± 1.4
347.63 K, 74910 kPa, x1 = 0.492	730.29 ± 1.5
347.63 K, 79900 kPa, x1 = 0.492	733.48 ± 1.5
347.63 K, 84860 kPa, x1 = 0.801	770.5 ± 1.4
347.63 K, 84880 kPa, x1 = 0.492	736.56 ± 1.5
347.63 K, 89840 kPa, x1 = 0.801	773.63 ± 1.5
347.63 K, 89860 kPa, x1 = 0.492	739.56 ± 1.5
347.63 K, 94820 kPa, x1 = 0.801	776.66 ± 1.5
347.63 K, 104780 kPa, x1 = 0.801	782.49 ± 1.5
347.63 K, 104800 kPa, x1 = 0.492	747.95 ± 1.6
347.63 K, 109760 kPa, x1 = 0.611	761.37 ± 1.6
347.63 K, 109760 kPa, x1 = 0.801	785.29 ± 1.5
347.63 K, 109770 kPa, x1 = 0.492	750.58 ± 1.6
347.63 K, 114860 kPa, x1 = 0.801	788.08 ± 1.5
347.63 K, 119840 kPa, x1 = 0.801	790.72 ± 1.6
347.63 K, 124840 kPa, x1 = 0.492	758.13 ± 1.7
347.63 K, 124840 kPa, x1 = 0.611	769.09 ± 1.6
347.63 K, 129860 kPa, x1 = 0.492	760.49 ± 1.7
347.63 K, 129860 kPa, x1 = 0.801	795.81 ± 1.6
347.64 K, 14870 kPa, x1 = 0.611	686.95 ± 1.2
347.64 K, 19860 kPa, x1 = 0.611	693.03 ± 1.2
347.64 K, 24870 kPa, x1 = 0.611	698.69 ± 1.3
347.64 K, 29860 kPa, x1 = 0.611	703.93 ± 1.3
347.64 K, 34870 kPa, x1 = 0.611	708.89 ± 1.3
347.64 K, 39870 kPa, x1 = 0.611	713.55 ± 1.3
347.64 K, 44850 kPa, x1 = 0.611	717.99 ± 1.3
347.64 K, 49850 kPa, x1 = 0.611	722.19 ± 1.4
347.64 K, 54850 kPa, x1 = 0.611	726.18 ± 1.4
347.64 K, 59940 kPa, x1 = 0.611	730.09 ± 1.4
347.64 K, 74910 kPa, x1 = 0.611	740.63 ± 1.4
347.64 K, 79900 kPa, x1 = 0.611	743.88 ± 1.5
347.64 K, 84880 kPa, x1 = 0.611	747.05 ± 1.5
347.64 K, 89870 kPa, x1 = 0.611	750.1 ± 1.5
347.64 K, 94840 kPa, x1 = 0.611	753.04 ± 1.5
347.64 K, 94850 kPa, x1 = 0.492	742.44 ± 1.6
347.64 K, 99820 kPa, x1 = 0.492	745.23 ± 1.6
347.64 K, 99820 kPa, x1 = 0.611	755.91 ± 1.6
347.64 K, 104780 kPa, x1 = 0.611	758.67 ± 1.6
347.64 K, 114850 kPa, x1 = 0.492	753.18 ± 1.6
347.64 K, 114870 kPa, x1 = 0.611	764.04 ± 1.6
347.64 K, 119840 kPa, x1 = 0.611	766.59 ± 1.6
347.64 K, 119860 kPa, x1 = 0.492	755.69 ± 1.7
347.64 K, 129860 kPa, x1 = 0.611	771.5 ± 1.7
357.54 K, 1050 kPa, x1 = 0.7024	664.83 ± 1.2
357.54 K, 4810 kPa, x1 = 0.7024	671.47 ± 1.2
357.54 K, 9820 kPa, x1 = 0.7024	679.43 ± 1.2
357.54 K, 14810 kPa, x1 = 0.7024	686.58 ± 1.2
357.54 K, 14860 kPa, x1 = 0.611	677.52 ± 1.2
357.54 K, 19810 kPa, x1 = 0.7024	693.14 ± 1.2
357.54 K, 24800 kPa, x1 = 0.7024	699.18 ± 1.3
357.54 K, 29900 kPa, x1 = 0.7024	704.93 ± 1.3
357.54 K, 34880 kPa, x1 = 0.7024	710.21 ± 1.3
357.54 K, 39870 kPa, x1 = 0.7024	715.16 ± 1.3
357.54 K, 44860 kPa, x1 = 0.7024	719.83 ± 1.3
357.54 K, 49860 kPa, x1 = 0.7024	724.29 ± 1.4
357.54 K, 54850 kPa, x1 = 0.7024	728.52 ± 1.4
357.54 K, 59830 kPa, x1 = 0.7024	732.55 ± 1.4
357.54 K, 64830 kPa, x1 = 0.7024	736.42 ± 1.4
357.54 K, 69820 kPa, x1 = 0.7024	740.13 ± 1.4
357.54 K, 74790 kPa, x1 = 0.7024	743.68 ± 1.4
357.54 K, 84760 kPa, x1 = 0.7024	750.39 ± 1.5
357.54 K, 94820 kPa, x1 = 0.7024	756.74 ± 1.5
357.55 K, 1070 kPa, x1 = 0.611	655.88 ± 1.2
357.55 K, 1080 kPa, x1 = 0.492	647.12 ± 1.2
357.55 K, 1300 kPa, x1 = 0.4	692.98 ± 1.2
357.55 K, 1300 kPa, x1 = 0.8992	692.98 ± 1.2
357.55 K, 4850 kPa, x1 = 0.492	653.64 ± 1.2
357.55 K, 4860 kPa, x1 = 0.611	662.51 ± 1.2
357.55 K, 5030 kPa, x1 = 0.4	699.4 ± 1.2
357.55 K, 5030 kPa, x1 = 0.8992	699.4 ± 1.2
357.55 K, 9850 kPa, x1 = 0.492	661.43 ± 1.2
357.55 K, 9860 kPa, x1 = 0.611	670.41 ± 1.2
357.55 K, 10030 kPa, x1 = 0.4	707.18 ± 1.2
357.55 K, 10030 kPa, x1 = 0.8992	707.18 ± 1.2
357.55 K, 14850 kPa, x1 = 0.492	668.43 ± 1.2
357.55 K, 15010 kPa, x1 = 0.4	714.27 ± 1.3
357.55 K, 15010 kPa, x1 = 0.8992	714.27 ± 1.2
357.55 K, 19840 kPa, x1 = 0.492	674.79 ± 1.3
357.55 K, 19870 kPa, x1 = 0.611	684.02 ± 1.3
357.55 K, 20010 kPa, x1 = 0.4	720.81 ± 1.3
357.55 K, 20010 kPa, x1 = 0.8992	720.81 ± 1.2
357.55 K, 24840 kPa, x1 = 0.492	680.72 ± 1.3
357.55 K, 24850 kPa, x1 = 0.611	689.97 ± 1.3
